The record followed here is patent US9169252B2 (BRISTOL-MYERS SQUIBB COMPANY, priority 2014, dated 2015).

In assay [1] the target is IRAK4 (Homo sapiens (Human), UniProt Q9NWZ3). The experiment in a line: IRAK4 Inhibition Assay. The assay is classed as biochemical. To be noted: ATP 500 μM; IRAK4 0.6 nM; read-out: IRAK4 IC50. In a few lines: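 Mobility-shift readout: fluorescent substrate and phosphoproduct resolved electrophoretically on Caliper LabChip 3000 after EDTA quench (35 mM). Enzyme reaction of IRAK4, substrates and test compound ran 60 min at room temperature.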

Assay [2] relates to TLR2 induced IL-6 in peripheral blood mononuclear cells (PBMCs). In words: PBMC TLR2 Induced IL-6 Assay. The assay is classed as cell-based, human. To be noted: human PBMCs, lipoteichoic acid stimulated, IL-6 by ELISA; for IC50: read-out: Cell IC50; for EC50: read-out: Cell EC50. In short, it runs like this:
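Lipoteichoic acid at 10 µg/ml served as TLR2 stimulus for 5 hours, following a 30-minute compound pretreatment at 37° C. Cells were Ficoll-isolated human PBMCs, 250000 cells/well, cultured in RPMI plus 10% heat-inactivated FCS.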
In general terms: In an ELISA, binding on a coated surface is turned into a signal by an enzyme label.

The structures appear in SMILES notation. Like-named read-outs stand apart in the source and are kept apart here.

IRAK4, sequence (Q9NWZ3 whole entry, species assumed): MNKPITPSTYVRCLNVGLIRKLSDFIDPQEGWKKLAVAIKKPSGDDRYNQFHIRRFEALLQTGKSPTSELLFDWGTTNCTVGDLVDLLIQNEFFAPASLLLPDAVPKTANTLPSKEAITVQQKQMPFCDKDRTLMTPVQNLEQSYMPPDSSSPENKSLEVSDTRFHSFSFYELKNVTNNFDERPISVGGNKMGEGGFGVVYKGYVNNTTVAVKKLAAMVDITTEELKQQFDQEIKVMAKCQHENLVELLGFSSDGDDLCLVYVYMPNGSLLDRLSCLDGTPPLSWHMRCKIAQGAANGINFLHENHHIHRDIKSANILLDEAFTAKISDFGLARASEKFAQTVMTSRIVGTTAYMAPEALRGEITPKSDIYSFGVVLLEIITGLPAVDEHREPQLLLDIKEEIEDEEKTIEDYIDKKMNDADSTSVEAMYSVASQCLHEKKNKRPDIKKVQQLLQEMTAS

Regarding `CCCCNC(=O)NCc1cnc2c(ccn2-c2cc(NC(C)C)c(C(=O)NC[C@@H](F)C(C)(C)O)cn2)c1` [Example 516], the IC50 came out at 8.6 nM in assay [1] and 414 nM in assay [2] (Homo sapiens, PBMC).

With `CC(C)(F)[C@H](F)CNC(=O)c1cnc(-n2ccc3cc(C#N)cnc32)cc1Nc1cccc(O)c1` [Example 517], the IC50 in assay [1] came to 1.2 nM; in assay [2] (Homo sapiens, PBMC), 113 nM.

In the case of `CC(C)Nc1cc(-n2ccc3cc(CNC(=O)CC4CCOCC4)cnc32)ncc1C(=O)NC[C@@H](F)C(C)(C)O` [Example 518], the IC50 is 14 nM in assay [1] and 94 nM in assay [2] (Homo sapiens, PBMC).

Consider `CC(C)Nc1cc(-n2ccc3cc(CNC(=O)CC(C)(C)C)cnc32)ncc1C(=O)NC[C@@H](F)C(C)(C)O` [Example 519], for which the IC50 was 2.7 nM in assay [1] and 126 nM in assay [2] (Homo sapiens, PBMC).

With `CC(C)Nc1cc(-n2ccc3cc(CNC(=O)C4CCOC4)cnc32)ncc1C(=O)NC[C@@H](F)C(C)(C)O` (some centres unmarked) [Example 520], the IC50 in assay [1] amounted to 10.5 nM; in assay [2] (Homo sapiens, PBMC), 347 nM.

`CC(C)(O)c1cnc(Nc2cc(-n3ncc4cc(C#N)cnc43)ncc2C(=O)NC[C@@H](F)C(C)(C)O)s1` [Example 521, (R)-6-(5-Cyano-1H-pyrazolo[3,4-b]pyridin-1-yl)-N-(2-fluoro-3-hydroxy-3-methylbutyl)-4-((5-(2-hydroxypropan-2-yl)thiazol-2-yl)amino)nicotinamide]: the IC50 in assay [1] amounted to 3.5 nM. In addition, the half-maximal effective concentration (EC50) in assay [2] (Homo sapiens, PBMC) was 460 nM.

In the case of `CC(C)(O)[C@H](F)CNC(=O)c1cnc(-n2ncc3cc(C#N)cnc32)cc1Nc1cccc(C#N)c1` [Example 522], the IC50 in assay [1] amounted to 2.6 nM. Further, in assay [2] (Homo sapiens, PBMC), the EC50 was found to be 177 nM.

Consider `CC(C)(O)[C@H](F)CNC(=O)c1cnc(-n2ncc3cc(C#N)cnc32)cc1Nc1ccc2ncsc2c1` [Example 524], for which the IC50 in assay [1] was 2.6 nM. In addition, the EC50 in assay [2] (Homo sapiens, PBMC) came out at 132 nM.

Regarding `CC(C)(O)[C@H](F)CNC(=O)c1cnc(-n2ncc3cc(C(N)=O)cnc32)cc1Nc1ccc2ncoc2c1` [Example 525], the IC50 in assay [1] was determined as 1.6 nM. For the same compound, the concentration giving a half-maximal response (EC50) in assay [2] (Homo sapiens, PBMC) is 253 nM.

Consider `CC(C)(O)[C@H](F)CNC(=O)c1cnc(-n2ncc3cc(C#N)cnc32)cc1Nc1ccc(-n2cncn2)cc1` [Example 526], for which the IC50 in assay [1] was 3.7 nM. In assay [2] (Homo sapiens, PBMC), the EC50 amounted to 113 nM.

In the case of `Cn1nnnc1-c1ccc(Nc2cc(-n3ncc4cc(C#N)cnc43)ncc2C(=O)NC[C@@H](F)C(C)(C)O)cc1` [Example 527], the half-maximal inhibitory concentration (IC50) in assay [1] is 3 nM. In addition, the EC50 in assay [2] (Homo sapiens, PBMC) was found to be 228 nM.

In the case of `CC(C)(O)[C@H](F)CNC(=O)c1cnc(-n2ncc3cc(C#N)cnc32)cc1Nc1cccc(C#N)c1F` [Example 528], in assay [1], the IC50 amounted to 3.3 nM. Further, in assay [2] (Homo sapiens, PBMC), the EC50 was found to be 91 nM and the IC50 was 326 nM.

`Cn1cc(-c2ccc(Nc3cc(-n4ncc5cc(C#N)cnc54)ncc3C(=O)NC[C@@H](F)C(C)(C)O)cc2)cn1` [Example 531]: the IC50 is 2.2 nM in assay [1] and 67 nM in assay [2] (Homo sapiens, PBMC).

As for `CC(C)(O)[C@H](F)CNC(=O)c1cnc(-n2ncc3cc(C#N)cnc32)cc1N[C@@H]1CCN(c2ncc(F)cn2)C1` [Example 532, 6-(5-Cyano-1H-pyrazolo[3,4-b]pyridin-1-yl)-N—((R)-2-fluoro-3-hydroxy-3-methylbutyl)-4-(((R)-1-(5-fluoropyrimidin-2-yl)pyrrolidin-3-yl)amino)nicotinamide], the IC50 in assay [1] was determined as 5.5 nM. Moreover, the EC50 in assay [2] amounted to 127 nM.

For `CC(C)(O)[C@H](F)CNC(=O)c1cnc(-n2ncc3cc(C#N)cnc32)cc1N[C@H]1CCN(c2ncc(F)cn2)C1` [Example 533], in assay [1], the IC50 amounted to 10.3 nM. Further, the EC50 in assay [2] (Homo sapiens, PBMC) is 194 nM.

In the case of `CC(C)(O)[C@H](F)CNC(=O)c1cnc(-n2ncc3cc(C#N)cnc32)cc1NC1CCN(c2ccccc2)CC1` [Example 535], the IC50 in assay [1] worked out at 4 nM. Also, in assay [2] (Homo sapiens, PBMC), the EC50 was 185 nM.

Turning to `COc1cnc(N2CC[C@@H](Nc3cc(-n4ncc5cc(C#N)cnc54)ncc3C(=O)NC[C@@H](F)C(C)(C)O)C2)nc1` [Example 536], the IC50 in assay [1] was 8.1 nM. For the same compound, the EC50 in assay [2] (Homo sapiens, PBMC) amounted to 189 nM.

In the case of `CC(C)(O)[C@H](F)CNC(=O)c1cnc(-n2ncc3cc(C#N)cnc32)cc1N[C@@H]1CCN(c2ncccn2)C1` [Example 537], the IC50 in assay [1] amounted to 6.8 nM. Besides, the EC50 in assay [2] (Homo sapiens, PBMC) came to 159 nM.

On to `CC(C)(O)[C@H](F)CNC(=O)c1cnc(-n2ncc3cc(C#N)cnc32)cc1N[C@@H]1CCN(C(=O)c2ccc(F)cc2F)C1` [Example 538], for which the IC50 worked out at 9.6 nM in assay [1] and 698 nM in assay [2] (Homo sapiens, PBMC).

Regarding `CC(C)(O)[C@H](F)CNC(=O)c1cnc(-n2ncc3cc(C#N)cnc32)cc1NC1CN(c2ncc(F)cn2)C1` [Example 539], the IC50 in assay [1] was 6.3 nM. Besides, the EC50 in assay [2] (Homo sapiens, PBMC) turned out to be 256 nM.

Take `CC(C)(O)[C@H](F)CNC(=O)c1cnc(-n2ncc3cc(C#N)cnc32)cc1NC1CCN(c2ncc(F)cn2)CC1` [Example 540]: the IC50 was found to be 3 nM in assay [1] and 158 nM in assay [2] (Homo sapiens, PBMC).

As for `CC(C)(O)[C@H](F)CNC(=O)c1cnc(-n2ncc3cc(C#N)cnc32)cc1NC1CN(c2ncc(Cl)cn2)C1` [Example 541], the IC50 in assay [1] came to 14.4 nM; in assay [2] (Homo sapiens, PBMC), 149 nM.

On to `COC(=O)N1CC(Nc2cc(-n3ncc4cc(C#N)cnc43)ncc2C(=O)NC[C@@H](F)C(C)(C)O)C1` [Example 542], for which the IC50 in assay [1] worked out at 7.3 nM; in assay [2] (Homo sapiens, PBMC) it was 973 nM.

As for `CCOC(=O)N1CC(Nc2cc(-n3ncc4cc(C#N)cnc43)ncc2C(=O)NC[C@@H](F)C(C)(C)O)C1` [Example 543], the IC50 in assay [1] amounted to 6.8 nM; in assay [2] (Homo sapiens, PBMC), 404 nM.

Turning to `CC(C)(O)[C@H](F)CNC(=O)c1cnc(-n2ncc3cc(C#N)cnc32)cc1NC1COC1` [Example 546], in assay [1], the IC50 turned out to be 3.7 nM. Further, in assay [2] (Homo sapiens, PBMC), the concentration for a half-maximal effect (EC50) is 257 nM.

As to `CC(C)(O)[C@H](F)CNC(=O)c1cnc(-n2ncc3cc(F)cnc32)cc1NC1CCCOC1` (some centres unmarked) [Example 547], the IC50 in assay [1] was 16.6 nM. Besides, in assay [2] (Homo sapiens, PBMC), the EC50 is 65 nM and the IC50 worked out at 591 nM.

Take `CC(C)(O)[C@H](F)CNC(=O)c1cnc(N2CCc3cc(C#N)cnc32)cc1NC1COC1` [Example 549]: the concentration for half-maximal inhibition (IC50) in assay [1] was found to be 16.8 nM. In assay [2] (Homo sapiens, PBMC), the EC50 turned out to be 413 nM and the IC50 came out at 757 nM.

Turning to `CC(C)(O)[C@H](F)CNC(=O)c1cnc(-n2ncc3cc(F)cnc32)cc1NC1COC1` [Example 550], in assay [1], the IC50 stood at 10.3 nM. Besides, the EC50 in assay [2] (Homo sapiens, PBMC) turned out to be 416 nM.

As to `CC(C)(O)[C@H](F)CNC(=O)c1cnc(-n2ncc3cc(Cl)cnc32)cc1NC1COC1` [Example 551], the IC50 in assay [1] turned out to be 12.6 nM; in assay [2] (Homo sapiens, PBMC), 212 nM.

Turning to `CO[C@H]1CC[C@H](NC(=O)c2cnc(-n3ncc4cc(C#N)cnc43)cc2NC2COC2)CC1` [Example 552], the IC50 worked out at 13.4 nM in assay [1] and 213 nM in assay [2] (Homo sapiens, PBMC).

In the case of `CC(C)(O)CCNC(=O)c1cnc(-n2ncc3cc(C#N)cnc32)cc1NC1COC1` [Example 553], the IC50 worked out at 11.2 nM in assay [1] and 298 nM in assay [2] (Homo sapiens, PBMC).

As to `CC(C)(O)[C@H](F)CNC(=O)c1cnc(-n2ncc3cc(C#N)cnc32)cc1NC1COCC1(F)F` (some centres unmarked) [Example 554], the IC50 came to 5.5 nM in assay [1] and 370 nM in assay [2] (Homo sapiens, PBMC).

`CC(C)(O)[C@H]1CC[C@H](NC(=O)c2cnc(-n3ncc4cc(C#N)cnc43)cc2NC2COC2)CC1` [Example 555]: the IC50 worked out at 7 nM in assay [1] and 47 nM in assay [2] (Homo sapiens, PBMC).

With `CC(C)(O)[C@H]1CC[C@H](NC(=O)c2cnc(-n3ncc4cc(Cl)cnc43)cc2NC2COC2)CC1` [Example 556], the IC50 in assay [1] was 6.2 nM; in assay [2] (Homo sapiens, PBMC), 305 nM.

Usually IC50 stands for the concentration that inhibits the measured activity by half. A word on the EC50: it is the concentration giving half of the maximal effect.
